From publication PMC11092066, “Novel analogues of a nonnucleoside SARS-CoV-2 RdRp inhibitor as potential antivirotics” (Beilstein Journal of Organic Chemistry, 2024)

Target: SARS-CoV-2 RdRp (nsp12, nsp7, nsp8 polymerase complex) (Severe acute respiratory syndrome coronavirus 2, UniProt P0DTD1)
Assay: biochemical
Type: biochemical
Conditions: for BEI (binding efficiency index): calculated as pIC50 [mol/L]/MW [kDa] from SARS-CoV-2 RdRp IC50; for IC50: recombinant RdRp: 1 μM nsp12, 3 μM nsp7, 3 μM nsp8, 0.5 μM template/primer RNA, 10 μM NTPs, 1 h at 30 °C, GraphPad fit

SMILES	BEI (binding efficiency index)	IC50 [µM]	inhibitory activity against SARS-CoV-2 RdRp (in words) (primer extension polymerase assay)
Cn1cc(C(=O)N[C@@H](Cc2ccc(O)cc2)C(=O)O)cc(-c2ccccc2)c1=O [3a]	9.9	–	–
Cn1cc(C(=O)N[C@@H](Cc2ccc(O)cc2)C(=O)O)cc(-c2cccnc2)c1=O [3b]	9.4	204	–
Cn1cc(C(=O)N[C@@H](Cc2ccc(O)cc2)C(=O)O)cc(-c2ccsc2)c1=O [3c]	10.2	88.1	–
O=C(N[C@@H](Cc1ccc(O)cc1)C(=O)O)c1cc(-c2ccccc2)c(=O)n2ccsc12 [4a]	9.3	88.1	–
Cc1nn2c(=O)c(-c3ccccc3)cc(C(=O)N[C@@H](Cc3ccc(O)cc3)C(=O)O)c2s1 [4b]	8.8	113	–
O=C(N[C@@H](Cc1ccc(O)cc1)C(=O)O)c1cc(-c2ccccc2)c(=O)n2c1sc1ccc(OC3CCCCC3)cc12 [compound 1, HeE1-2Tyr, reference compound]	7.8	–	–
O=C(N[C@@H](Cc1ccc(O)cc1)C(=O)O)c1cc(-c2ccccc2)c(=O)n2c1oc1ccc(OC3CCCCC3)cc12 [compound 2]	–	–	devoid of any activity
O=C(N[C@@H](Cc1ccc(O)cc1)C(=O)O)c1cc(-c2ccccc2)c(=O)n(-c2cc(OC3CCCCC3)ccc2O)c1O [compound 16]	6.7	114	–
